Usually IC50 stands for the concentration that gives 50% inhibition.

Assay [1] deals with Factor XIa (Homo sapiens (Human), UniProt P03951). The experiment in a line: Factor XIa inhibition assay (FLINT) utilizing a fluorophore-quencher pair peptide substrate. It is filed as biochemical. The following applies: 30 min preincubation, kinetic reads over 30 min, read-out: FXIa Kin Inh IC50. The method, boiled down: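 FXIa ([…]) preincubated 30 min with compound (11-point 3-fold dilution, top 100 nM, 2% DMSO), then 15 μM quenched FXI Arg146-based peptide added; Tris pH 7.5, CaCl2, BSA, CHAPS. Fluorescence 485/520 nm read kinetically every 5 min over 30 min at RT; IC50 by 4-parameter fit.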
Sequence of Factor XIa (P03951 388-625): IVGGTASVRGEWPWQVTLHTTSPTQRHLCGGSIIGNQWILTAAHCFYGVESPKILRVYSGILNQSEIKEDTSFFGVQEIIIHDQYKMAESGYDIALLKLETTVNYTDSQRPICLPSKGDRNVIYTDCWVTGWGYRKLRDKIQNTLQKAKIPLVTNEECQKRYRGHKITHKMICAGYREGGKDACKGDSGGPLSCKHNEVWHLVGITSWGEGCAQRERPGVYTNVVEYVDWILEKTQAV
Sequence of Factor XIa (P03951 19-387 partner): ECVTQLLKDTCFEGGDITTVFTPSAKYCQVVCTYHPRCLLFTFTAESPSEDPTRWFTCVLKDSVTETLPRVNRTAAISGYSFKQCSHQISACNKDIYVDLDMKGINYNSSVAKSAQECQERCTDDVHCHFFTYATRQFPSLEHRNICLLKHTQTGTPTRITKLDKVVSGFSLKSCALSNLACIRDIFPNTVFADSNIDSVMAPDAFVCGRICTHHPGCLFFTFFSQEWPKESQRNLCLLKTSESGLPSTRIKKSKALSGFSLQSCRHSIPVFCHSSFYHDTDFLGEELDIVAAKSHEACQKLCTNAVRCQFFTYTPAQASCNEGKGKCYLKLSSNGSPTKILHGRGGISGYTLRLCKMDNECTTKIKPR

Assay [2] deals with human plasma kallikrein (Homo sapiens (Human), UniProt P03952). The experiment in a line: Kallikrein inhibition assay (FLINT) utilizing a quenched AMC peptide substrate. To be noted: 30 min preincubation, kinetic reads over 30 min, Z-Gly-Pro-Arg-AMC substrate 50 μM; read-out: Kallikrein Kin Inh IC50. It is filed as biochemical. The method, boiled down: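 Fluorogenic Z-Gly-Pro-Arg-AMC cleavage (50 μM substrate, 2 nM kallikrein, Tris pH 7.5, CaCl2, BSA, CHAPS, 2% DMSO) read kinetically at 340/440 nm for 30 min after 30-min compound pre-incubation. Compounds in 11-point 3-fold series from 1 μM; percent inhibition fitted to four-parameter equation for IC50.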
Sequence of human plasma kallikrein (P03952 391-638): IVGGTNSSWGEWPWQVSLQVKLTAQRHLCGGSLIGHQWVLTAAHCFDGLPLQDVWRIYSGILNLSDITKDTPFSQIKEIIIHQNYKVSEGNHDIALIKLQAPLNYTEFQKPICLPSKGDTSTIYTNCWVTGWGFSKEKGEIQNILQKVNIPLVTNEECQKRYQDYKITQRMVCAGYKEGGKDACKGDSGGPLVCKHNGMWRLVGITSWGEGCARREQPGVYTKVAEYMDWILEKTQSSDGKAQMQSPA
Sequence of human plasma kallikrein (P03952 20-390 partner): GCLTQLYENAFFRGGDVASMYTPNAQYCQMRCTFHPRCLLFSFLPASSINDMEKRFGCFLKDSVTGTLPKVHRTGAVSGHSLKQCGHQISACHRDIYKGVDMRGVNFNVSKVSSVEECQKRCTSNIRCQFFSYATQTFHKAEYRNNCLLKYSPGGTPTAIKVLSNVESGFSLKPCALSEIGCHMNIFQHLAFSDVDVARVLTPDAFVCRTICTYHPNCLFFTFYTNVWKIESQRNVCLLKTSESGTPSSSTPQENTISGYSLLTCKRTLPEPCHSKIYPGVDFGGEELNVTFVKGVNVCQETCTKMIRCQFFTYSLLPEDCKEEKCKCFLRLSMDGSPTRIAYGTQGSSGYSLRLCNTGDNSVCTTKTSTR

Setting [3] is: 5Fam-[…]-K5Tamra substrate 15 μM.
The mark [4] stands for this setting: 5Fam-KLTRAETV-K5Tamra substrate 15 μM.

Each structure is given as a SMILES string. Where two headings read alike, the source gives them in different places.

Regarding `O=C1C=C(c2c(-n3cnnn3)ccc(Cl)c2F)C[C@H]2CC[C@@H](c3ncc(-c4ccnc(N5CC6(COC6)C5)c4F)[nH]3)N12` (single isomer, unassigned) [Example 108, (3S*,8aR)-7-(3-chloro-2-fluoro-6-(1H-tetrazol-1-yl)phenyl)-3-(5-(3-fluoro-2-(2-oxa-6-azaspiro[3.3]heptan-6-yl)pyridin-4-yl)-1H-imidazol-2-yl)-2,3,8,8a-tetrahydroindolizin-5(1H)-one], the half-maximal inhibitory concentration (IC50) in assay [1] (setting [3]) amounted to 2.9 nM; in assay [2], 5.7 nM.
Turning to `O=C1C=C(c2c(-n3cnnn3)ccc(Cl)c2F)C[C@H]2CC[C@H](c3nc(F)c(-c4ccnc(C5(O)CC5)c4F)[nH]3)N12` (single isomer, unassigned) [Example 109], the values for the 50% inhibitory concentration (IC50) in assay [1] (setting [4]) and in assay [2] were 4.8 nM and 35.8 nM, respectively.
On to `O=C1C=C(c2c(-n3cnnn3)ccc(Cl)c2F)C[C@H]2CC[C@H](c3ncc(-c4ccnc(N5CCC5)c4F)[nH]3)N12` (single isomer, unassigned) [Example 110, (3*R,8aR)-3-(5-(2-(azetidin-1-yl)-3-fluoropyridin-4-yl)-1H-imidazol-2-yl)-7-(3-chloro-2-fluoro-6-(1H-tetrazol-1-yl)phenyl)-2,3,8,8a-tetrahydroindolizin-5(1H)-one], for which the IC50 in assay [1] (setting [3]) worked out at 11 nM; in assay [2], 6.9 nM.
For `O=C1C=C(c2c(-n3cnnn3)ccc(Cl)c2F)C[C@H]2CC[C@@H](c3ncc(-c4ccnc(N5CCC5)c4F)[nH]3)N12` (single isomer, unassigned) [Example 111, (3*S,8aR)-3-(5-(2-(azetidin-1-yl)-3-fluoropyridin-4-yl)-1H-imidazol-2-yl)-7-(3-chloro-2-fluoro-6-(1H-tetrazol-1-yl)phenyl)-2,3,8,8a-tetrahydroindolizin-5(1H)-one], the IC50 turned out to be 2.9 nM in assay [1] (setting [4]) and 3.8 nM in assay [2].
`O=C1C=C(c2c(-n3cnnn3)ccc(Cl)c2F)C[C@H]2CC[C@H](c3ncc(-c4ccnc(-n5cncn5)c4F)[nH]3)N12` (single isomer, unassigned) [Example 112, (3*R,8aR)-7-(3-chloro-2-fluoro-6-(1H-tetrazol-1-yl)phenyl)-3-(5-(3-fluoro-2-(1H-1,2,4-triazol-1-yl)pyridin-4-yl)-1H-imidazol-2-yl)-2,3,8,8a-tetrahydroindolizin-5(1H)-one]: the 50% inhibitory concentration (IC50) in assay [1] (setting [4]) is 9.6 nM; in assay [2], 20.6 nM.
As for `O=C1C=C(c2c(-n3cnnn3)ccc(Cl)c2F)C[C@H]2CC[C@@H](c3nc(-c4ccnc(-c5ccn[nH]5)c4F)c[nH]3)N12` (single isomer, unassigned) [Example 115, (3S,8a*R)-7-(3-chloro-2-fluoro-6-(1H-tetrazol-1-yl)phenyl)-3-(4-(3-fluoro-2-(1H-pyrazol-5-yl)pyridin-4-yl)-1H-imidazol-2-yl)-2,3,8,8a-tetrahydroindolizin-5(1H)-one], the IC50 came out at 1.5 nM in assay [1] (setting [4]) and 1.9 nM in assay [2].
For `O=C1C=C(c2c(-n3cnnn3)ccc(Cl)c2F)C[C@H]2CC[C@H](c3ncc(-c4ccnc(C5(O)CC5)c4F)[nH]3)N12` (single isomer, unassigned) [Example 116, (3*R,8aR)-7-(3-chloro-2-fluoro-6-(1H-tetrazol-1-yl)phenyl)-3-(5-(3-fluoro-2-(1-hydroxycyclopropyl)pyridin-4-yl)-1H-imidazol-2-yl-4-d)-2,3,8,8a-tetrahydroindolizin-5(1H)-one] the same measures were 8.3 nM and 64.4 nM.
Turning to `O=C1Nc2ccc(-c3cnc([C@@H]4CC[C@@H]5CC(c6c(-n7cnnn7)ccc(Cl)c6F)=CC(=O)N54)[nH]3)c(F)c2CO1` (single isomer, unassigned) [Example 118, 6-(24(3*S,8a*R)-7-(3-chloro-2-fluoro-6-(1H-tetrazol-1-yl)phenyl)-5-oxo-1,2,3,5,8,8a-hexahydroindolizin-3-yl)-1H-imidazol-5-yl)-5-fluoro-1,4-dihydro-2H-benzo[d][1,3]oxazin-2-one], the concentration for half-maximal inhibition (IC50) in assay [1] (setting [4]) is 0.4 nM; in assay [2], 1.7 nM.
For `Nc1ccc(-c2cnc([C@H]3CC[C@@H]4CC(c5cc(Cl)ccc5-n5cnnn5)=CC(=O)N43)[nH]2)c(F)n1` (single isomer, unassigned) [Example 119, (3*R,8aR)-3-(5-(6-amino-2-fluoropyridin-3-yl-5-d)-1H-imidazol-2-yl)-7-(5-chloro-2-(1H-tetrazol-1-yl)phenyl-3-d)-2,3,8,8a-tetrahydroindolizin-5(1H)-one] the same measures were 0.6 nM and 11.7 nM.
For `Nc1ccc(-c2cnc([C@@H]3CC[C@@H]4CC(c5cc(Cl)ccc5-n5cnnn5)=CC(=O)N43)[nH]2)c(F)n1` (single isomer, unassigned) [Example 120, (3*S,8aR)-3-(5-(6-amino-2-fluoropyridin-3-yl-5-d)-1H-imidazol-2-yl)-7-(5-chloro-2-(1H-tetrazol-1-yl)phenyl-3-d)-2,3,8,8a-tetrahydroindolizin-5(1H)-one], in that order: 4.5 nM and 67.7 nM.
As for `[2H]c1cc(Cl)cc(C2=CC(=O)N3[C@H](CC[C@@H]3c3ncc(-c4ccc(N)nc4F)[nH]3)C2)c1-n1cnnn1` (single isomer, unassigned) [Example 121], the figures for the half-inhibitory concentration (IC50) in assay [1] (setting [3]) and in assay [2] were 0.7 nM and 16.9 nM, respectively.
Regarding `Nc1ccc(-c2cnc([C@@H]3CC[C@@H]4CC(c5cc(Cl)ccc5-n5cnnn5)=CC(=O)N43)[nH]2)c(F)n1` (single isomer, unassigned) [Example 122, (3*S,8aR)-3-(5-(6-amino-2-fluoropyridin-3-yl)-1H-imidazol-2-yl)-7-(5-chloro-2-(1H-tetrazol-1-yl)phenyl-3-d)-2,3,8,8a-tetrahydroindolizin-5(1H)-one], the IC50 came out at 4 nM in assay [1] (setting [4]) and 53.1 nM in assay [2].
`[2H]c1nc([C@H]2CC[C@]3([2H])CC(c4c(-n5cnnn5)ccc(Cl)c4F)=CC(=O)N23)[nH]c1-c1c(F)nc(N)c([2H])c1[2H]` (single isomer, unassigned) [Example 131, (3R*,8aR*)-3-(5-(6-amino-2-fluoropyridin-3-yl-4,5-d2)-1H-imidazol-2-yl-4-d)-7-(3-chloro-2-fluoro-6-(1H-tetrazol-1-yl)phenyl)-2,3,8,8a-tetrahydroindolizin-5(1H)-one-8a-d]: the IC50 was 0.9 nM in assay [1] (setting [3]) and 11.7 nM in assay [2].
For `[2H]c1nc([C@@H]2CC[C@]3([2H])CC(c4c(-n5cnnn5)ccc(Cl)c4F)=CC(=O)N23)[nH]c1-c1c(F)nc(N)c([2H])c1[2H]` (single isomer, unassigned) [Example 132, (3S *,8aR*)-3-(5-(6-amino-2-fluoropyridin-3-yl-4,5-d2)-1H-imidazol-2-yl-4-d)-7-(3-chloro-2-fluoro-6-(1H-tetrazol-1-yl)phenyl)-2,3,8,8a-tetrahydroindolizin-5(1H)-one-8a-d] the same measures were 0.4 nM and 6.8 nM.
Turning to `CCN(CCO)c1nccc(-c2cnc([C@@H]3CC[C@H]4CC(c5c(-n6cnnn6)ccc(Cl)c5F)=CC(=O)N43)[nH]2)c1F` (single isomer, unassigned) [Example 135, (3S,8a*S)-7-(3-chloro-2-fluoro-6-(1H-tetrazol-1-yl)phenyl)-3-(5-(2-(ethyl(2-hydroxyethyl)amino)-3-fluoropyridin-4-yl)-1H-imidazol-2-yl)-2,3,8,8a-tetrahydroindolizin-5(1H)-one], the IC50 was 22.5 nM in assay [1] (setting [4]) and 15.5 nM in assay [2].

The values above are taken from patent US20230295157A1, “3-(1H-IMIDAZOL-2-YL)-2,3,8,8A-TETRAHYDROINDOLIZIN-5(1H)-ONE DERIVATIVES USEFUL AS FACTOR XIA INHIBITORS” (JANSSEN PHARMACEUTICA NV, priority 2020, published 2023).
